This note sets out measurements from patent US20220111122A1, “COMPOSITION FOR IMPROVED BONE FRACTURE HEALING” (CORTHOTEC LTD, priority 2019, published 2022).

The test system of one experiment is osteoclast number. Put plainly: zoledronate concentration versus osteoclast number (FIG. 4). The class given is cell-based. As to conditions: compared to lower concentrations. The source says: (§1) The graphs in FIGS. 3 and 4 depict the optimal concentrations of zoledronate (derived from zoledronic acid as the bisphosphonate) required to suppress bone resorption by means of a proportionate decrease in osteoclast number.

In experiment [1] the test system is osteoclast activity (as measured by bone resorption). In words: zoledronate concentration versus bone resorption (FIG. 3). The class given is cell-based. As to conditions: osteoclast activity decreases significantly compared to lower concentrations.
Description: as §1

Turning to `O=P(O)(O)C(O)(Cn1ccnc1)P(=O)(O)O` [zoledronic acid], the “concentration of optimal efficacy to decrease osteoclast number” value with osteoclast number is “approximately 10^−6 M”. Also, in experiment [1], the “concentration of optimal efficacy to suppress bone resorption” value is recorded as “approximately 10^−6 M”.
